Test system: 922993-354-T-J3-PDC complex spheroid viability
Experiment: Anticancer human tumor 922993-354-T-J3-PDC patient-derived endometrial carcinoma cell line growth inhibition [POLQ]
Settings: for IC50: curve of first compound; for viability, T/C: stronger effect = lower value
In short: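 Growth inhibition in 3D: complex spheroids (tumor PDC, HUVEC, MSC) treated with POLQ inhibitor combinations; where Cmax unknown, highest tested concentration 10 microM, except SN-38 at 1 microM.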

[1] = second compound 0.0316 µM, first compound 0.0316 µM
[2] = second compound 0.0316 µM, first compound 0.1 µM
[3] = second compound 0.0316 µM, first compound 0.316 µM
[4] = second compound 0.0316 µM, first compound 1 µM
[5] = second compound 0.0316 µM, first compound 3.16 µM
[6] = second compound 0.0316 µM, first compound 10 µM
[7] = second compound 0.1 µM, first compound 0.0316 µM
[8] = second compound 0.1 µM, first compound 0.1 µM
[9] = second compound 0.1 µM, first compound 0.316 µM
[10] = second compound 0.1 µM, first compound 1 µM
[11] = second compound 0.1 µM, first compound 3.16 µM
[12] = second compound 0.1 µM, first compound 10 µM
[13] = second compound 0.316 µM, first compound 0.0316 µM
[14] = second compound 0.316 µM, first compound 0.1 µM
[15] = second compound 0.316 µM, first compound 0.316 µM
[16] = second compound 0.316 µM, first compound 1 µM
[17] = second compound 0.316 µM, first compound 3.16 µM
[18] = second compound 0.316 µM, first compound 10 µM
[19] = second compound 1 µM, first compound 0.0316 µM
[20] = second compound 1 µM, first compound 0.1 µM
[21] = second compound 1 µM, first compound 0.316 µM
[22] = second compound 1 µM, first compound 1 µM
[23] = second compound 1 µM, first compound 3.16 µM
[24] = second compound 1 µM, first compound 10 µM
[25] = second compound 3.16 µM, first compound 0.0316 µM
[26] = second compound 3.16 µM, first compound 0.1 µM
[27] = second compound 3.16 µM, first compound 0.316 µM
[28] = second compound 3.16 µM, first compound 1 µM
[29] = second compound 3.16 µM, first compound 3.16 µM
[30] = second compound 3.16 µM, first compound 10 µM
[31] = second compound 10 µM, first compound 0.0316 µM
[32] = second compound 10 µM, first compound 0.1 µM
[33] = second compound 10 µM, first compound 0.316 µM
[34] = second compound 10 µM, first compound 1 µM
[35] = second compound 10 µM, first compound 3.16 µM
[36] = second compound 10 µM, first compound 10 µM
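Also: spheroids exposed to the agents for one week.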
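For viability, T/C in this document: 100% = DMSO vehicle control wells.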

Work on `CC(=O)O[C@H]1C(=O)[C@@]2(C)[C@H]([C@H](OC(=O)c3ccccc3)[C@]3(O)C[C@H](OC(=O)[C@H](O)[C@@H](NC(=O)c4ccccc4)c4ccccc4)C(C)=C1C3(C)C)[C@]1(OC(C)=O)CO[C@@H]1C[C@@H]2O` + Cc1cccc(N(C)C(=O)C2C(O)CCN2c2nc(C)cc(C(F)(F)F)c2C#N)c1 yielded an IC50 (second compound 0.0316 µM) of over 3 µM, an IC50 (second compound 0.1 µM) of over 3 µM and an IC50 (second compound 0.316 µM) of over 3 µM. For the same molecule, the IC50 (second compound 1 µM) was over 3 µM, the IC50 (second compound 3.16 µM) was over 3 µM and the IC50 (second compound 10 µM) was over 3 µM. The viability, T/C (second compound 0.0316 µM, first compound 0.00949 µM) was 100%, the viability, T/C (second compound 0.0316 µM, first compound 0.03 µM) was 102% and the viability, T/C (second compound 0.0316 µM, first compound 0.0949 µM) was 101%. The viability, T/C (second compound 0.0316 µM, first compound 0.3 µM) was 103%, the viability, T/C (second compound 0.0316 µM, first compound 0.949 µM) was 98.5% and the viability, T/C (second compound 0.0316 µM, first compound 3 µM) was 76.6%. For the same molecule, the viability, T/C (second compound 0.1 µM, first compound 0.00949 µM) was 105%, the viability, T/C (second compound 0.1 µM, first compound 0.03 µM) was 107% and the viability, T/C (second compound 0.1 µM, first compound 0.0949 µM) was 99.4%. The viability, T/C (second compound 0.1 µM, first compound 0.3 µM) was 99.8%, the viability, T/C (second compound 0.1 µM, first compound 0.949 µM) was 98.9% and the viability, T/C (second compound 0.1 µM, first compound 3 µM) was 66.9%. The viability, T/C (second compound 0.316 µM, first compound 0.00949 µM) was 104%, the viability, T/C (second compound 0.316 µM, first compound 0.03 µM) was 103% and the viability, T/C (second compound 0.316 µM, first compound 0.0949 µM) was 99.9%. The viability, T/C (second compound 0.316 µM, first compound 0.3 µM) was 103%, the viability, T/C (second compound 0.316 µM, first compound 0.949 µM) was 95.5% and the viability, T/C (second compound 0.316 µM, first compound 3 µM) was 73.3%. For the same molecule, the viability, T/C (second compound 1 µM, first compound 0.00949 µM) was 104%, the viability, T/C (second compound 1 µM, first compound 0.03 µM) was 98.2% and the viability, T/C (second compound 1 µM, first compound 0.0949 µM) was 99%. The viability, T/C (second compound 1 µM, first compound 0.3 µM) was 101%, the viability, T/C (second compound 1 µM, first compound 0.949 µM) was 91.8% and the viability, T/C (second compound 1 µM, first compound 3 µM) was 64.8%. The viability, T/C (second compound 3.16 µM, first compound 0.00949 µM) was 99.8%, the viability, T/C (second compound 3.16 µM, first compound 0.03 µM) was 105% and the viability, T/C (second compound 3.16 µM, first compound 0.0949 µM) was 100%. For the same molecule, the viability, T/C (second compound 3.16 µM, first compound 0.3 µM) was 95%, the viability, T/C (second compound 3.16 µM, first compound 0.949 µM) was 70.5% and the viability, T/C (second compound 3.16 µM, first compound 3 µM) was 63.5%. For the same molecule, the viability, T/C (second compound 10 µM, first compound 0.00949 µM) was 97.3%, the viability, T/C (second compound 10 µM, first compound 0.03 µM) was 99.3% and the viability, T/C (second compound 10 µM, first compound 0.0949 µM) was 75.5%. For the same molecule, the viability, T/C (second compound 10 µM, first compound 0.3 µM) was 66.7%, the viability, T/C (second compound 10 µM, first compound 0.949 µM) was 63.3% and the viability, T/C (second compound 10 µM, first compound 3 µM) was 48.7%.

`COc1cc(C2c3cc4c(cc3C(OC3OC5COC(C)OC5C(O)C3O)C3COC(=O)C23)OCO4)cc(OC)c1O` (stereo unspecified) + Cc1cccc(N(C)C(=O)C2C(O)CCN2c2nc(C)cc(C(F)(F)F)c2C#N)c1 gave an IC50 (second compound 0.0316 µM) of 8.07 µM, an IC50 (second compound 0.1 µM) of 6.05 µM and an IC50 (second compound 0.316 µM) of 8.24 µM. It also gave an IC50 (second compound 1 µM) of 8.49 µM, an IC50 (second compound 3.16 µM) of 6.33 µM and an IC50 (second compound 10 µM) of 1.72 µM. It also gave a viability, T/C [1] of 101%, a viability, T/C [2] of 90% and a viability, T/C [3] of 91.2%. It also gave a viability, T/C [4] of 93.2%, a viability, T/C [5] of 89.8% and a viability, T/C [6] of 40.9%. For the same molecule, the viability, T/C [7] was 101%, the viability, T/C [8] was 98.9% and the viability, T/C [9] was 95.9%. The viability, T/C [10] was 96.3%, the viability, T/C [11] was 68.9% and the viability, T/C [12] was 35.3%. For the same molecule, the viability, T/C [13] was 112%, the viability, T/C [14] was 102% and the viability, T/C [15] was 99.5%. It also gave a viability, T/C [16] of 93.4%, a viability, T/C [17] of 80.8% and a viability, T/C [18] of 43.3%. For the same molecule, the viability, T/C [19] was 92.2%, the viability, T/C [20] was 98.8% and the viability, T/C [21] was 96.3%. For the same molecule, the viability, T/C [22] was 88.5%, the viability, T/C [23] was 76.5% and the viability, T/C [24] was 45.6%. For the same molecule, the viability, T/C [25] was 102%, the viability, T/C [26] was 95.8% and the viability, T/C [27] was 89.9%. The viability, T/C [28] was 86%, the viability, T/C [29] was 74.9% and the viability, T/C [30] was 34.8%. The viability, T/C [31] was 100%, the viability, T/C [32] was 79.9% and the viability, T/C [33] was 92.1%. It also gave a viability, T/C [34] of 65.6%, a viability, T/C [35] of 32.1% and a viability, T/C [36] of 21.6%.

`O=c1[nH]cc(F)c(=O)[nH]1` + Cc1cccc(N(C)C(=O)C2C(O)CCN2c2nc(C)cc(C(F)(F)F)c2C#N)c1 showed an IC50 (second compound 0.0316 µM) of 2.29 µM, an IC50 (second compound 0.1 µM) of 2.13 µM and an IC50 (second compound 0.316 µM) of 2.1 µM. For the same molecule, the IC50 (second compound 1 µM) was 2.28 µM, the IC50 (second compound 3.16 µM) was 2.54 µM and the IC50 (second compound 10 µM) was 2.49 µM. For the same molecule, the viability, T/C [1] was 102%, the viability, T/C [2] was 100% and the viability, T/C [3] was 93%. For the same molecule, the viability, T/C [4] was 90%, the viability, T/C [5] was 34.6% and the viability, T/C [6] was 16.3%. For the same molecule, the viability, T/C [7] was 89.5%, the viability, T/C [8] was 95.7% and the viability, T/C [9] was 97.8%. It also gave a viability, T/C [10] of 94.4%, a viability, T/C [11] of 26.9% and a viability, T/C [12] of 17.5%. For the same molecule, the viability, T/C [13] was 108%, the viability, T/C [14] was 96.1% and the viability, T/C [15] was 102%. It also gave a viability, T/C [16] of 86.6%, a viability, T/C [17] of 29.7% and a viability, T/C [18] of 14.8%. It also gave a viability, T/C [19] of 103%, a viability, T/C [20] of 102% and a viability, T/C [21] of 98.1%. The viability, T/C [22] was 97.3%, the viability, T/C [23] was 31.1% and the viability, T/C [24] was 15.9%. It also gave a viability, T/C [25] of 103%, a viability, T/C [26] of 104% and a viability, T/C [27] of 101%. It also gave a viability, T/C [28] of 90.5%, a viability, T/C [29] of 40.6% and a viability, T/C [30] of 12.1%. For the same molecule, the viability, T/C [31] was 104%, the viability, T/C [32] was 98.8% and the viability, T/C [33] was 111%. For the same molecule, the viability, T/C [34] was 94.6%, the viability, T/C [35] was 38.3% and the viability, T/C [36] was 13.5%.

Source: PubChem BioAssay AID1963830 (Molecular Pharmacology Branch, DTP, NCI, 2024)
